Test results taken from US9216169B2, “Pharmaceutical composition comprising candesartan or ester thereof and chlortalidone, and use thereof” (TIANJIN INSTITUTE OF PHARMACEUTICAL RESEARCH, priority 2011, dated 2015).

Key:
[1] = system: Spontaneously hypertensive rats (SHR); experiment: SBP of SHR by Tail-Cuff method, continuous intragastric administration for 8 days (Examples 1-7); assay type: in vivo, rat
Procedure: Spontaneously hypertensive rats (SHR), male, are provided by Beijing Vital River Laboratory Animal Technology Co., Ltd. The number of animal production license is SCXK (Jing) 2007-0001. Animals are raised in an observation room at the room temperature of 25±2° C. controlled by central air-conditioning system and with artificial lighting of 12 h/day. The animals are raised in separate cages sized 43×27×18 cm with 4 animals for each cage. The rats are free access to water and are fed with block fodder everyday, and the water supply is refreshed once a day. The temperature of the room for measuring the blood pressure is 26±2° C.
The blood pressure is measured by Tail-Cuff method and the hear rate is measured according to the pulse frequency. Animals are pre-trained for the blood pressure measurement for more than 2 weeks so as to adapt to the environment of measurement. Animals are placed in a isothermal bag at 37° C. to be prewarmed for 5 to 10 min for formal measurement. Blood pressures of the rats are measured from tail arteries for 2 to 3 times at rest states, and an average value is taken as each blood pressure measured value. All data are collected and preserved by a computer.
SHRs with systolic blood pressures (SBPs) >190 mmHg are selected for experiment.
Rats are randomly divided into 14 groups according to their blood pressures with each group having 7 rats. Animals are fasted overnight and measured for the blood pressure of pre-administration at the day of experiment, and then administered drugs in accordance with the following method:
The single-drug group is intragastrically administered candesartan (Can) or chlorthalidone (Chl), with the dosage of Can of 0.36 mg/kg and the dosages of Chl of 0.0675, 0.36, 0.54, 0.72, 1.125 and 2.25 mg/kg respectively;
The pharmaceutical composition is administered with 6 different doses (denoted by F1, F2, F3, F4, F5 and F6 respectively). Specifically, the ratios of the dosages of Can+Chl in all pharmaceutical compositions are:
The administration volumes are all 5 ml/kg.
Rats are continuously administered for 8 days. SBPs are measured 2, 4, 8, 12 and 24 hours after the last administration. The area under blood pressure reduction-time curve from 0 to 24 h (AUC0-24) and the maximum blood pressure reduction value are calculated.
The calculated results are expressed as mean±standard error ( x±SE); statistical treatment is performed using unpaired t test between groups to compare the significance of the average difference; the interaction between drugs are determined by using factorial analysis of variance, and P<0.05 means the difference has statistical significance.

[2] = system: Spontaneously hypertensive rats (SHR); experiment: SBP of SHR by Tail-Cuff method, first administration and continuous administration for 14 days (Examples 8-12); assay type: in vivo, rat
[3] = Chl 0.0675 mg/kg i.g. 8 days, 2 h after last administration
[4] = Chl 0.0675 mg/kg i.g. 8 days, 4 h after last administration
[5] = Chl 0.0675 mg/kg i.g. 8 days, 8 h after last administration
[6] = Chl 0.0675 mg/kg i.g. 8 days, 12 h after last administration
[7] = Chl 0.0675 mg/kg i.g. 8 days, 24 h after last administration
[8] = Chl 0.0675 mg/kg i.g. 8 days, pre-administration
[9] = Chl 0.36 mg/kg i.g. 8 days (Table 2), 2 h after last administration
[10] = Chl 0.36 mg/kg i.g. 8 days (Table 2), 4 h after last administration
[11] = Chl 0.36 mg/kg i.g. 8 days (Table 2), 8 h after last administration
[12] = Chl 0.36 mg/kg i.g. 8 days (Table 2), 12 h after last administration
[13] = Chl 0.36 mg/kg i.g. 8 days (Table 2), 24 h after last administration
[14] = Chl 0.36 mg/kg i.g. 8 days (Table 2), pre-administration
[15] = Chl 1.125 mg/kg i.g. 8 days, 2 h after last administration
[16] = Chl 1.125 mg/kg i.g. 8 days, 4 h after last administration
[17] = Chl 1.125 mg/kg i.g. 8 days, 8 h after last administration
[18] = Chl 1.125 mg/kg i.g. 8 days, 12 h after last administration
[19] = Chl 1.125 mg/kg i.g. 8 days, 24 h after last administration
[20] = Chl 1.125 mg/kg i.g. 8 days, pre-administration
[21] = Chl 2.25 mg/kg i.g. 8 days, 2 h after last administration
[22] = Chl 2.25 mg/kg i.g. 8 days, 4 h after last administration
[23] = Chl 2.25 mg/kg i.g. 8 days, 8 h after last administration
[24] = Chl 2.25 mg/kg i.g. 8 days, 12 h after last administration
[25] = Chl 2.25 mg/kg i.g. 8 days, 24 h after last administration
[26] = Chl 2.25 mg/kg i.g. 8 days, pre-administration
[27] = Chl, dosage 0.36 mg/kg in Table 3 (Example 3 title: 0.54 mg/kg), i.g. 8 days, 2 h after last administration
[28] = Chl, dosage 0.36 mg/kg in Table 3 (Example 3 title: 0.54 mg/kg), i.g. 8 days, 4 h after last administration
[29] = Chl, dosage 0.36 mg/kg in Table 3 (Example 3 title: 0.54 mg/kg), i.g. 8 days, 8 h after last administration
[30] = Chl, dosage 0.36 mg/kg in Table 3 (Example 3 title: 0.54 mg/kg), i.g. 8 days, 12 h after last administration
[31] = Chl, dosage 0.36 mg/kg in Table 3 (Example 3 title: 0.54 mg/kg), i.g. 8 days, 24 h after last administration
[32] = Chl, dosage 0.36 mg/kg in Table 3 (Example 3 title: 0.54 mg/kg), i.g. 8 days, pre-administration
[33] = Chl, dosage 0.36 mg/kg in Table 4 (Example 4 title: 0.72 mg/kg), i.g. 8 days, 2 h after last administration
[34] = Chl, dosage 0.36 mg/kg in Table 4 (Example 4 title: 0.72 mg/kg), i.g. 8 days, 4 h after last administration
[35] = Chl, dosage 0.36 mg/kg in Table 4 (Example 4 title: 0.72 mg/kg), i.g. 8 days, 8 h after last administration
[36] = Chl, dosage 0.36 mg/kg in Table 4 (Example 4 title: 0.72 mg/kg), i.g. 8 days, 12 h after last administration
[37] = Chl, dosage 0.36 mg/kg in Table 4 (Example 4 title: 0.72 mg/kg), i.g. 8 days, 24 h after last administration
[38] = Chl, dosage 0.36 mg/kg in Table 4 (Example 4 title: 0.72 mg/kg), i.g. 8 days, pre-administration

## NS(=O)(=O)c1cc(C2(O)NC(=O)c3ccccc32)ccc1Cl (stereo not shown) [Chl, Chlorthalidone]
[1]; Chl 0.0675 mg/kg
  antihypertensive effect after the administration: no significant antihypertensive effect
[1]; Chl 0.0675 mg/kg i.g. 8 days
  AUC0-24h (area under blood pressure reduction-time curve): −9.0 mmHg · h
  maximum reduction of the blood pressure: −4.7 mmHg
[1]; [3]
  SBP: 203 mmHg
  SBP difference value compared with the basic value: (−2.1 mmHg
[1]; [4]
  SBP: 206 mmHg
  SBP difference value compared with the basic value: (0.6 mmHg
[1]; [5]
  SBP: 204 mmHg
  SBP difference value compared with the basic value: (−1.4 mmHg
[1]; [6]
  SBP: 203 mmHg
  SBP difference value compared with the basic value: (−2.0 mmHg
[1]; [7]
  SBP: 207 mmHg
  SBP difference value compared with the basic value: (2.1 mmHg
[1]; [8]
  SBP: 208 mmHg
  SBP difference value compared with the basic value: (2.3 mmHg
[1]; Chl 0.36 mg/kg i.g. 8 days
  AUC0-24h (area under blood pressure reduction-time curve): −26.0 mmHg · h
  maximum reduction of the blood pressure: −3.7 mmHg
[1]; [9]
  SBP: 205 mmHg
  SBP difference value compared with the basic value: (−0.6 mmHg
[1]; [10]
  SBP: 204 mmHg
  SBP difference value compared with the basic value: (−1.3 mmHg
[1]; [11]
  SBP: 204 mmHg
  SBP difference value compared with the basic value: (−1.3 mmHg
[1]; [12]
  SBP: 204 mmHg
  SBP difference value compared with the basic value: (−1.4 mmHg
[1]; [13]
  SBP: 205 mmHg
  SBP difference value compared with the basic value: (−0.4 mmHg
[1]; [14]
  SBP: 204 mmHg
  SBP difference value compared with the basic value: (−1.4 mmHg
[1]; Chl 0.54 mg/kg i.g. 8 days
  AUC0-24h (area under blood pressure reduction-time curve): −57.0 mmHg · h
  maximum reduction of the blood pressure: −4.7 mmHg
[1]; Chl 0.72 mg/kg i.g. 8 days
  AUC0-24h (area under blood pressure reduction-time curve): −79.0 mmHg · h
  maximum reduction of the blood pressure: −5.7 mmHg
[1]; Chl 1.125 mg/kg
  time after administration at which an antihypertensive effect is seen: 4 h
[1]; Chl 1.125 mg/kg i.g. 8 days
  AUC0-24h (area under blood pressure reduction-time curve): −110.0 mmHg · h
  maximum reduction of the blood pressure: −12.0 mmHg
[1]; [15]
  SBP: 205 mmHg
  SBP difference value compared with the basic value: (−2.9 mmHg
[1]; [16]
  SBP: 199 mmHg
  SBP difference value compared with the basic value: (−8.9 mmHg
[1]; [17]
  SBP: 201 mmHg
  SBP difference value compared with the basic value: (−6.3 mmHg
[1]; [18]
  SBP: 202 mmHg
  SBP difference value compared with the basic value: (−6.0 mmHg
[1]; [19]
  SBP: 207 mmHg
  SBP difference value compared with the basic value: (−0.4 mmHg
[1]; [20]
  SBP: 206 mmHg
  SBP difference value compared with the basic value: (−1.7 mmHg
[1]; Chl 2.25 mg/kg
  period after administration with significant antihypertensive effect: 2 to 12 h
[1]; Chl 2.25 mg/kg i.g. 8 days
  AUC0-24h (area under blood pressure reduction-time curve): −199.0 mmHg · h
  maximum reduction of the blood pressure: −15.0 mmHg
[1]; [21]
  SBP: 198 mmHg
  SBP difference value compared with the basic value: (−8.3 mmHg
[1]; [22]
  SBP: 192 mmHg
  SBP difference value compared with the basic value: (−11.3 mmHg
[1]; [23]
  SBP: 195 mmHg
  SBP difference value compared with the basic value: (−11.1 mmHg
[1]; [24]
  SBP: 197 mmHg
  SBP difference value compared with the basic value: (−9.4 mmHg
[1]; [25]
  SBP: 202 mmHg
  SBP difference value compared with the basic value: (−4.6 mmHg
[1]; [26]
  SBP: 205 mmHg
  SBP difference value compared with the basic value: (−1.3 mmHg
[1]; Chl 0.0675, 0.36, 0.54 and 0.72 mg/kg
  influence on the maximum reduction of SBP and the AUC compared with the blank control group: no significant influence
[1]; Chl 1.125 and 2.25 mg/kg
  influence on the maximum reduction of SBP and the AUC compared with the blank control group: significant decrease
[1]; [27]
  SBP: 202 mmHg
  SBP difference value compared with the basic value: (−2.0 mmHg
[1]; [28]
  SBP: 202 mmHg
  SBP difference value compared with the basic value: (−2.0 mmHg
[1]; [29]
  SBP: 201 mmHg
  SBP difference value compared with the basic value: (−3.7 mmHg
[1]; [30]
  SBP: 203 mmHg
  SBP difference value compared with the basic value: (−1.9 mmHg
[1]; [31]
  SBP: 202 mmHg
  SBP difference value compared with the basic value: (−2.6 mmHg
[1]; [32]
  SBP: 203 mmHg
  SBP difference value compared with the basic value: (−1.6 mmHg
[1]; [33]
  SBP: 203 mmHg
  SBP difference value compared with the basic value: (−3.9 mmHg
[1]; [34]
  SBP: 202 mmHg
  SBP difference value compared with the basic value: (−4.9 mmHg
[1]; [35]
  SBP: 202 mmHg
  SBP difference value compared with the basic value: (−4.9 mmHg
[1]; [36]
  SBP: 205 mmHg
  SBP difference value compared with the basic value: (−2.6 mmHg
[1]; [37]
  SBP: 205 mmHg
  SBP difference value compared with the basic value: (−2.4 mmHg
[1]; [38]
  SBP: 205 mmHg
  SBP difference value compared with the basic value: (−2.3 mmHg
[2]; Chl 0.15625 mg/kg i.g. for 14 days
  AUC0-14d: −36.0 mmHg · d
[2]; Chl 0.15625 mg/kg i.g., after first administration
  AUC0-24h: −47.0 mmHg · h
